Measurements taken from US20260198495A1, “BINARY INSECTICIDE COMPOSITION AND USE THEREOF” (SHENYANG SINOCHEM AGROCHEMICALS R & D CO., LTD., priority 2022, published 2026).
In brackets after ≈: the same amount, converted by molar mass. Read-outs that look alike come from different tables or passages of the source.

Columns and labels:
Assay type in all cases: in vivo
[1] = test system: Sitobion miscanthi (Fabricius); assay: whole plant or invertebrate; details: for Measured mortality rate: single pesticide, 48 hours
Protocol: Test target: Sitobion miscanthi (Fabricius).
(§1) Preparation of the pesticide solution: according to different test requirements, the test samples were accurately weighed respectively with an electronic analytical balance. The technical pesticides were dissolved in acetone, and then diluted with 0.1% Tween 80 water into a series of pesticide solutions with a certain concentration gradient according to the experimental design dosage.
Experimental method: first, wheat seedlings with uniform and consistent Sitobion miscanthi (Fabricius) were selected, with about 30-40 insects on each pot of wheat. Then, they were evenly sprayed with the pesticide solution in the order from low dosage to high dosage according to the experimental design, with 2.5 mL for each pot and 3 replicates for each treatment. In addition, a blank control CK was set up.
(§2) The treated test materials were placed in an observation room, and the temperature, humidity and illumination of the observation room could be adjusted as needed. The number of dead and alive insects was investigated 48 hours later, and the corrected mortality rate was calculated using the Abbott's formula.
The synergism of the mixture was evaluated by the Bliss method. According to the concept of independent joint action he proposed, Bliss believes that the theoretical mortality rate P when insecticides are used in combination can be calculated by the following formula: […]
Pm is the measured mortality rate (%) of the target when the first active ingredient is at a concentration of m; and Pn is the measured mortality rate (%) of the target when the second active ingredient is used at a concentration of n.
(§3) If the actual mortality rate of the target after the two active ingredients are mixed at a certain concentration is greater than theoretical mortality rate P, it is determined that the two active ingredients have a synergistic effect when used in combination at the set concentration, and otherwise, they have an antagonistic effect.

[2] = test system: 3rd-instar larvae of Pyrausta nubilalis Hubern; assay: Synergism assay (Bliss) of I-72 + cartap, monosultap, bisultap, Example 5, Table 5; details: 72 h
Protocol: Test subject: 3rd-instar larvae of Pyrausta nubilalis Hubern, a sensitive strain reared indoors.
(§4) Test conditions: temperature: 24-26° C., humidity: RH 60%, and illumination: L:D=14:10
Preparation method: the test pesticides were accurately weighed respectively with an electronic analytical balance. After the two technical materials were respectively added into an appropriate amount of solvent and completely dissolved, the stock solution of the required concentration was prepared with water containing 0.1% Tween 80. The stock solutions of the two active ingredients were mixed in a certain ratio to prepare a mixed solution, which was then diluted respectively into a series of pesticide solutions with a certain concentration gradient according to the experimental design dosage.
Experimental method: the artificial diet-pesticide film method was adopted. A standard clean 24-well culture plate was selected. 1 ml of artificial diet was added to each well. After the diet cooled and solidified, a quantitative amount of a pesticide solution was added to the culture plate using a continuous sampler, and then it was air-dried naturally in the shade. The standard test insects were introduced, with 1 insect in each well, a total of 48 insects. The treated test insects were placed in an observation room under certain conditions. The reaction of the test insects was regularly observed, and the number of dead and live insects was investigated 72 h later.
The evaluation method adopted was the Bliss method. This method is applicable to the qualitative screening of insecticidal compositions. According to the concept of independent joint action he proposed, Bliss believes that the theoretical mortality rate P when insecticides are used in combination can be calculated by the following formula: […]
Pm is the mortality rate (%) of the target when the first active ingredient is at a concentration of m; and Pn is the mortality rate (%) of the target when the second active ingredient is at a concentration of n.
as §3

[3] = test system: 3rd-instar larvae of Ostrinia furnacalis Guenee; assay: Synergism screening (Bliss) of I-72 + ecdysteroid and juvenile hormone insecticides, Example 51, Table 51; details: for Measured mortality rate: single pesticide, 72 hours
Protocol: Test target: 3rd-instar larvae of Ostrinia furnacalis Guenee.
as §1
(§5) Experimental method: first, tender corn stems were selected and dipped in the prepared pesticide solution for 10 s in the order from low dosage to high dosage according to the experimental design. After natural air-drying in the shade, they were placed in a 9-cm-diameter Petri dish with filter paper, and uniform and healthy test insects were introduced, with 10 insects for each treatment and 3 replicates for each treatment. In addition, a blank control (CK) was set up.
as §2, with “72” for “48”
The synergism of the mixture was evaluated by adopting the Bliss method, as in Example 5.

[4] = test system: early 2nd-instar grubs of Holotrichia diomphalia Bates; assay: whole plant or invertebrate
Protocol: Test target: early 2nd-instar grubs of Holotrichia diomphalia Bates.
as §4, §1
Experimental method: the activity against Holotrichia diomphalia Bates was determined by the insect-dipping method. The early 2nd-instar grubs of Holotrichia diomphalia Bates were selected. The target insects were dipped into the pesticide solution for 10 s and then taken out. Excess pesticide solution was absorbed with filter paper. […] A treatment without the pesticide was set as the blank control.
The test insects were transferred to a multi-well culture plate with fresh potato pieces and placed in an observation room, and the temperature, humidity and illumination of the observation room could be adjusted as needed. The number of dead and live insects was investigated 72 hours later. The corrected mortality rate was calculated using the Abbott's formula, and statistical analysis was performed with the DPS data processing software to obtain the toxicity regression equation and LC50 value of each single test pesticide and each mixture of different ratios.

Rhizoctonia solani = assay: Control efficacy against Rhizoctonia solani, rice seedling potting method, Example 89, Table 89; details: rice seedlings, foliar spraying
Protocol: Control efficacy of the composition containing the compound I-72 against Rhizoctonia solani
Test target: Rhizoctonia solani, a sensitive strain cultured indoors.
The trial adopted the seedling potting method. Test crop: rice. Experimental method: the rice seedlings were cultured to the 2-leaf stage in the greenhouse of the experimental materials. Foliar spraying treatment was performed on the crop sprayer according to the designed dosage. The test target strain was inoculated 24 hours after the pesticide treatment. All the inoculated experimental materials were cultured in a phytotron. […] The disease grading and the calculation method of the control efficacy both referred to the agricultural industry standards of the People's Republic of China.

[5] = test system: Aphis gossypii Glover nymphs; assay: Joint toxicity of I-72 + organophosphorus insecticides, cotton leaf spraying, Example 17, Table 17; details: 48 h
Protocol: Test target: Aphis gossypii Glover nymphs, a sensitive strain reared indoors.
as §1
Experimental method: first, cotton leaves with uniform and consistent Aphis gossypii were selected, with about 20 insects on each leaf. Then, they were evenly sprayed with the pesticide solution in the order from low dosage to high dosage according to the experimental design, with 1.5 mL for each leaf and 3 replicates for each treatment. In addition, a blank control was set up.
(§6) The treated test materials were placed in an observation room, and the temperature, humidity and illumination of the observation room could be adjusted as needed. The number of dead and live insects was investigated 48 hours later. The corrected mortality rate was calculated using the Abbott's formula, and statistical analysis was performed with the DPS data processing software to obtain the toxicity regression equation, LC50 value and 95% confidence limit of each single test pesticide and each mixture of different ratios. Then, the co-toxicity coefficient of each ratio was calculated using the Sun Y-P method to evaluate the mixing effect (the same as in Example 1).

[6] = test system: 3rd-instar larvae of Chilo suppressalis (Walker); assay: Joint toxicity of I-72 + organophosphorus insecticides, rice seedling dipping, Example 15, Table 15; details: 3rd-instar larvae, rice seedling dipping, 48 h, A = compound I-72, B = diazinon, read-out: LC50
Protocol: Test target: 3rd-instar larvae of Chilo suppressalis (Walker), a sensitive strain reared indoors.
as §1
as §5, with “first, tender and fresh rice seedlings were selected” for “first, tender corn stems were selected”, “they were cut into small sections of 5 cm, placed in” for “they were placed in”, “blank control was set” for “blank control (CK) was set”
as §6

[7] = test system: Frankliniella occidentalis Pergande; assay: Joint toxicity of I-72 + organophosphorus insecticides, leaf dipping, Example 14, Table 14; details: in Phaseolus vulgaris, foliar, 48 h
Text: Test target: Frankliniella occidentalis Pergande, a sensitive strain reared indoors.
Experimental method: first, kidney bean leaves were selected and dipped in the prepared pesticide solution for 10 s in the order from low dosage to high dosage according to the experimental design. After natural air-drying in the shade, they were placed in a 9-cm-diameter Petri dish with filter paper, and uniform and healthy test insects were introduced, with about 20 insects for each treatment and 3 replicates for each treatment. In addition, a blank control was set up.

[8] = test system: 3rd-instar larvae of Hyphantria cunea; assay: Joint toxicity of I-72 + organophosphorus insecticides, poplar leaf dipping, Example 20, Table 20; details: foliar, A = compound I-72, B = phoxim, poplar leaf dipping, 72 hours, read-out: LC50
Text: Test target: 3rd-instar larvae of Hyphantria cunea, a sensitive strain reared indoors.
Experimental method: first, fresh and tender poplar leaves were selected, cut into small sections of 5 cm, and dipped in the prepared pesticide solution for 10 s in the order from low dosage to high dosage according to the experimental design. After natural air-drying in the shade, they were placed in a 9-cm-diameter Petri dish with filter paper, and uniform and healthy test insects were introduced, with 10 insects for each treatment and 3 replicates for each treatment. In addition, a blank control was set up.
The treated test materials were placed in an observation room, and the temperature, humidity and illumination of the observation room could be adjusted as needed. The number of dead and live insects was investigated 72 hours later.

[9] = Sitobion miscanthi, in Triticum aestivum, 48 h, read-out: Measured mortality rate
[10] = Ostrinia nubilalis, read-out: Mortality rate (%)
[11] = Ostrinia furnacalis, 72 h, read-out: Measured mortality rate

Structure (SMILES): CC(C)(C)[C@@H](O)[C@@H](Cc1ccc(Cl)cc1)n1cncn1 (racemic) [Paclobutrazol]
- mortality at 1 µg/mL [1, 9]: 6.8%
- mortality at 10 µg/mL [1, 9]: 7.8%
- mortality at 100 µg/mL [1, 9]: 11.3%

Structure (SMILES): CN(C)C(CSS(=O)(=O)[O-])CSS(=O)(=O)[O-].[Na+].[Na+] [Bisultap, bisultap]
- Mortality rate (%) ([2]; single agent 0.1 mg/L): 0%
- Mortality rate (%) ([2]; single agent 1 mg/L): 4.17%
- Mortality rate (%) ([2]; single agent 5 mg/L): 10.42%
- Mortality rate (%) ([2]; single agent 10 mg/L): 22.92%

Structure (SMILES): CC(C)[C@H](C)[C@@H](O)[C@H](O)[C@@H](C)[C@H]1CC[C@H]2[C@@H]3COC(=O)[C@H]4C[C@H](O)[C@H](O)C[C@]4(C)[C@H]3CC[C@]12C [Brassinolide]
- Measured mortality rate ([1]; 0.5 mg/L): 6.7%
- Measured mortality rate ([1]; 10 mg/L): 8.8%
- Measured mortality rate ([1]; 200 mg/L): 12.6%

Structure (SMILES): CN(C)C(CSC(N)=O)CSC(N)=O [Cartap, cartap]
- mortality at 0.1 µg/mL [2, 10]: 2.08%
- mortality at 1 µg/mL [2, 10]: 10.4%
- mortality at 5 µg/mL [2, 10]: 20.8%
- mortality at 10 µg/mL [2, 10]: 43.8%

Structure (SMILES): Nc1nc(N)nc(NC2CC2)n1 [Cyromazine]
- mortality at 0.1 µg/mL [3, 11]: 6.9%
- mortality at 2 µg/mL [3, 11]: 10.7%
- mortality at 40 µg/mL [3, 11]: 21.2%

Structure (SMILES): O=P(O)(O)CCCl [Ethephon]
- mortality at 0.2 µg/mL [1, 9]: 7%
- mortality at 10 µg/mL [1, 9]: 8.8%
- mortality at 500 µg/mL [1, 9]: 15%

Structure (SMILES): Cc1cc(C)cc(C(=O)N(NC(=O)c2ccc3c(c2C)OC(C)C3)C(C)(C)C)c1 (centres unmarked) [Fufenozide]
- Measured mortality rate ([3]; 0.1 mg/L): 9.4%
- Measured mortality rate ([3]; 2 mg/L): 15.4%
- Measured mortality rate ([3]; 40 mg/L): 41.9%

Structure (SMILES): C=C1C[C@]23C[C@@]1(O)CC[C@H]2[C@@]12C=C[C@H](O)[C@@](C)(C(=O)O1)[C@H]2[C@@H]3C(=O)O [Gibberellic acid]
- mortality at 0.5 µg/mL [1, 9]: 5.9%
- mortality at 10 µg/mL [1, 9]: 10%
- mortality at 200 µg/mL [1, 9]: 12.5%

Structure (SMILES): COc1cccc(C(=O)NN(C(=O)c2cc(C)cc(C)c2)C(C)(C)C)c1C [Methoxyfenozide]
- mortality at 0.1 µg/mL [3, 11]: 11.1%
- mortality at 2 µg/mL [3, 11]: 18.8%
- mortality at 40 µg/mL [3, 11]: 50%

Structure (SMILES): CN(C)C(CSS(=O)(=O)[O-])CSS(=O)(=O)O.[Na+] [Monosultap, monosultap]
- Mortality rate (%) ([2]; single agent 0.1 mg/L): 0%
- Mortality rate (%) ([2]; single agent 1 mg/L): 6.25%
- Mortality rate (%) ([2]; single agent 5 mg/L): 18.75%
- Mortality rate (%) ([2]; single agent 10 mg/L): 29.17%

Structure (SMILES): CC(COc1ccc(Oc2ccccc2)cc1)Oc1ccccn1 (centres unmarked) [Pyriproxyfen]
- mortality at 0.04 µg/mL [3, 11]: 7.1%
- mortality at 2 µg/mL [3, 11]: 9.7%
- mortality at 100 µg/mL [3, 11]: 16.1%

Structure (SMILES): CC1=CC(=O)CC(C)(C)[C@@]1(O)/C=C/C(C)=C/C(=O)O [S-abscisic acid]
- Measured mortality rate ([1]; 1 mg/L): 7.9%
- Measured mortality rate ([1]; 10 mg/L): 8.3%
- Measured mortality rate ([1]; 100 mg/L): 10.3%

Structure (SMILES): CCc1ccc(C(=O)NN(C(=O)c2cc(C)cc(C)c2)C(C)(C)C)cc1 [Tebufenozide]
- mortality at 0.1 µg/mL [3, 11]: 10.3%
- mortality at 2 µg/mL [3, 11]: 17.2%
- mortality at 40 µg/mL [3, 11]: 46.4%

Structure (SMILES): CO/C=C(/C(=O)OC)c1ccccc1Oc1cc(Oc2ccccc2C#N)ncn1 [azoxystrobin]
- LC50 ([4]; A = compound I-72, B = azoxystrobin, insect-dipping, 72 hours): 473.5404 µg/mL (≈ 1170 µM)

Structure (SMILES): CCCCc1c(C)c2ccc(OCc3ccccc3/C(=C\OC)C(=O)OC)cc2oc1=O [coumoxystrobin]
- Control efficacy (Rhizoctonia solani; 5 mg/L, A = compound I-72, B = coumoxystrobin): 44.3%
- Control efficacy (Rhizoctonia solani; 10 mg/L, A = compound I-72, B = coumoxystrobin): 61.9%
- Control efficacy (Rhizoctonia solani; 20 mg/L, A = compound I-72, B = coumoxystrobin): 81.5%

Structure (SMILES): CCOP(=S)(OCC)Oc1cc(C)nc(C(C)C)n1 [diazinon]
- LC50 [5]: 20.5 µg/mL
- LC50 [6]: 6.22 µg/mL

Structure (SMILES): CC1COC(Cn2cncn2)(c2ccc(Oc3ccc(Cl)cc3)cc2Cl)O1 (centres unmarked) [difenoconazole]
- LC50 ([4]; Holotrichia diomphalia, 72 h): 500 µg/mL (≈ 1230 µM)

Structure (SMILES): CCOC(=O)CC(SP(=S)(OC)OC)C(=O)OCC (centres unmarked) [malathion]
- LC50 [7]: 52.3 µg/mL

Structure (SMILES): CCOP(=S)(OCC)O/N=C(\C#N)c1ccccc1 [phoxim]
- LC50 ([5]; nymphs, cotton leaf spraying, A = compound I-72, B = phoxim, read-out: LC50): 31.6 µg/mL
- LC50 [8]: 10.1 µg/mL

Structure (SMILES): CO/C=C(/C(=O)OC)c1ccccc1COc1cc(-c2ccc(Cl)cc2)nn1C [pyraoxystrobin]
- Control efficacy (Rhizoctonia solani; 5 mg/L, A = compound I-72, B = pyraoxystrobin): 42.8%
- Control efficacy (Rhizoctonia solani; 10 mg/L, A = compound I-72, B = pyraoxystrobin): 71.5%
- Control efficacy (Rhizoctonia solani; 20 mg/L, A = compound I-72, B = pyraoxystrobin): 82.4%

Structure (SMILES): CC(C)(C)C(O)(CCc1ccc(Cl)cc1)Cn1cncn1 (centres unmarked) [tebuconazole]
- LC50 ([4]; Holotrichia diomphalia, 72 h): 477 µg/mL (≈ 1550 µM)
